Laboratory results published in PMC4203399 (Journal of Medicinal Chemistry, 2014).
“Also recorded” adds a separate entry of the source.

Key:
recombinant NS5BCΔ21 1b = recombinant NS5BCΔ21 1b (Hepatitis C virus genotype 1b, UniProt O92972); assay: NS5B primer dependent elongation; format: biochemical; conditions: for inhibition at 50 µM: read-out: inhibition of NS5B RdRp activity, screen at 50 μM
Huh-5-2 cells [1] = assay: MTS assay of antimetabolic effect, Huh-5-2; format: cell-based; conditions: data not shown
[2] = test system: genotype 1b HCV subgenomic replicon in Huh-5-2 cells; format: cell-based, hepatitis C virus
Huh-5-2 cells [3] = assay: microscopic examination of cell morphology in the replicon assay; format: cell-based; conditions: 72 h of compound treatment

CN1c2c(C(=O)Nc3ccc(OCC(N)=O)cc3)nn(-c3cccc(F)c3)c2-c2ccccc2S1(=O)=O [compound 4, N-[4-(Amino-2-oxoethoxy)phenyl]-1-(3-fluorophenyl)-4-methyl-1,4-dihydropyrazolo[4,3c][1,2]benzothiazine-3-carboxamide 5,5-Dioxide]
anti-NS5B activity (in words) (recombinant NS5BCΔ21 1b): inactive
antimetabolic effect after dose–response curve analysis (Huh-5-2 cells [1]): displayed antimetabolic effect

CN1c2c(C(=O)Nc3ccc(NS(C)(=O)=O)cc3)nn(-c3ccccc3Cl)c2-c2ccccc2S1(=O)=O [2c, 1-(2-Chlorophenyl)-4-methyl-N-{4-[(methylsulfonyl)amino]phenyl}-1,4-dihydropyrazolo[4,3-c][1,2]benzothiazine-3-carboxamide 5,5-Dioxide]
antimetabolic effect after dose–response curve analysis (Huh-5-2 cells [1]): displayed antimetabolic effect

CN1c2c(NC(=O)c3ccc(NS(C)(=O)=O)cc3)nn(-c3cccc(F)c3)c2-c2ccccc2S1(=O)=O [compound 5, N-[1-(3-Fluorophenyl)-4-methyl-5,5-dioxido-1,4-dihydropyrazolo[4,3-c][1,2]benzothiazin-3-yl]-4-(methylsulfonyl)aminobenzamide]
anti-NS5B activity (in words) (recombinant NS5BCΔ21 1b): inactive

COc1ccc(-n2nc(C(=O)Nc3ccc(NS(C)(=O)=O)cc3)c3c2-c2ccccc2S(=O)(=O)N3C)cc1 [2k, 1-(4-Methoxyphenyl)-4-methyl-N-{4-[(methylsulfonyl)amino]phenyl}-1,4-dihydropyrazolo[4,3-c][1,2]benzothiazine-3-carboxamide 5,5-Dioxide]
anti-NS5B activity (in words) (recombinant NS5BCΔ21 1b): inactive
inhibition at 50 µM (recombinant NS5BCΔ21 1b): < 50%
assessment of anti-HCV activity in the replicon assay (in words) [2]: selective anti-HCV activity without any antimetabolic effect
effect on cell morphology (microscopic analysis) (Huh-5-2 cells [3]): did not display any significant effects on cell morphology

CN1c2c(C(=O)Nc3ccc(NS(C)(=O)=O)cc3)nn(-c3ccccc3Br)c2-c2ccccc2S1(=O)=O [2f, 1-(2-Bromophenyl)-4-methyl-N-{4-[(methylsulfonyl)amino]phenyl}-1,4-dihydropyrazolo[4,3-c][1,2]benzothiazine-3-carboxamide 5,5-Dioxide]
assessment of anti-HCV activity in the replicon assay (in words) [2]: false positives

CN1c2c(C(=O)Nc3ccc(NS(C)(=O)=O)cc3)nn(-c3ccc(Br)cc3)c2-c2ccccc2S1(=O)=O [2e, 1-(4-Bromophenyl)-4-methyl-N-{4-[(methylsulfonyl)amino]phenyl}-1,4-dihydropyrazolo[4,3-c][1,2]benzothiazine-3-carboxamide 5,5-Dioxide]
assessment of anti-HCV activity in the replicon assay (in words) [2]: selective anti-HCV activity without any antimetabolic effect

Cc1ccc(-n2nc(C(=O)Nc3ccc(NS(C)(=O)=O)cc3)c3c2-c2ccccc2S(=O)(=O)N3C)cc1Cl [2r, 1-(3-Chloro-4-methylphenyl)-4-methyl-N-{4-[(methylsulfonyl)amino]phenyl}-1,4-dihydropyrazolo[4,3-c][1,2]benzothiazine-3-carboxamide 5,5-Dioxide]
inhibition at 50 µM (recombinant NS5BCΔ21 1b): ≥ 50%
antimetabolic effect after dose–response curve analysis (Huh-5-2 cells [1]): displayed antimetabolic effect

CN1c2c(C(=O)Nc3ccc(NS(C)(=O)=O)cc3)nn(-c3ccccc3C(F)(F)F)c2-c2ccccc2S1(=O)=O [2n, 4-Methyl-N-{4-[(methylsulfonyl)amino]phenyl}-1-[2-(trifluoromethyl)phenyl]-1,4-dihydropyrazolo[4,3-c][1,2]benzothiazine-3-carboxamide 5,5-Dioxide]
inhibition at 50 µM (recombinant NS5BCΔ21 1b): < 50%

CN1c2c(C(=O)Nc3ccc(NS(C)(=O)=O)cc3)n[nH]c2-c2ccccc2S1(=O)=O [2u, 4-Methyl-N-{4-[(Methylsulfonyl)amino]phenyl}-1,4-dihydropyrazolo[4,3-c][1,2]benzothiazine-3-carboxamide 5,5-Dioxide]
anti-NS5B activity (in words) (recombinant NS5BCΔ21 1b): totally inactive
inhibition at 50 µM (recombinant NS5BCΔ21 1b): < 50%

CN1c2c(C(=O)Nc3ccc(NS(C)(=O)=O)cc3)nn(-c3ccc(F)c(F)c3)c2-c2ccccc2S1(=O)=O [2o, 1-(3,4-Difluorophenyl)-4-methyl-N-{4-[(methylsulfonyl)amino]phenyl}-1,4-dihydropyrazolo[4,3-c][1,2]benzothiazine-3-carboxamide 5,5-Dioxide]
anti-NS5B activity (in words) (recombinant NS5BCΔ21 1b): less active than compound 1
inhibition at 50 µM (recombinant NS5BCΔ21 1b): ≥ 50%
assessment of anti-HCV activity in the replicon assay (in words) [2]: false positives

CN1c2c(C(=O)Nc3ccc(NS(C)(=O)=O)cc3)nn(-c3cccc(C(F)(F)F)c3)c2-c2ccccc2S1(=O)=O [2l, 4-Methyl-N-{4-[(methylsulfonyl)amino]phenyl}-1-[3-(trifluoromethyl)phenyl]-1,4-dihydropyrazolo[4,3-c][1,2]benzothiazine-3-carboxamide 5,5-Dioxide]
inhibition at 50 µM (recombinant NS5BCΔ21 1b): ≥ 50%
assessment of anti-HCV activity in the replicon assay (in words) [2]: selective anti-HCV activity without any antimetabolic effect

CN1c2c(C(=O)Nc3ccccc3)nn(-c3cccc(F)c3)c2-c2ccccc2S1(=O)=O [compound 3, 1-(3-Fluorophenyl)-4-methyl-N-phenyl-1,4-dihydropyrazolo[4,3-c][1,2]benzothiazine-3-carboxamide 5,5-Dioxide]
anti-NS5B activity (in words) (recombinant NS5BCΔ21 1b): inactive
assessment of anti-HCV activity in the replicon assay (in words) [2]: false positives

Cc1ccc(-n2nc(C(=O)Nc3ccc(NS(C)(=O)=O)cc3)c3c2-c2ccccc2S(=O)(=O)N3C)cc1C [2q, 1-(3,4-Dimethylphenyl)-4-methyl-N-{4-[(methylsulfonyl)amino]phenyl}-1,4-dihydropyrazolo[4,3-c][1,2]benzothiazine-3-carboxamide 5,5-Dioxide]
inhibition at 50 µM (recombinant NS5BCΔ21 1b): < 50%

CN1c2c(C(=O)Nc3ccc(NS(C)(=O)=O)cc3)nn(-c3ccc(Cl)c(C(F)(F)F)c3)c2-c2ccccc2S1(=O)=O [2s, 1-[4-Chloro-3-(trifluoromethyl)phenyl]-4-methyl-N-{4-[(methylsulfonyl)amino]phenyl}-1,4-dihydropyrazolo[4,3-c][1,2]benzothiazine-3-carboxamide 5,5-Dioxide]
inhibition at 50 µM (recombinant NS5BCΔ21 1b): < 50%
antimetabolic effect after dose–response curve analysis (Huh-5-2 cells [1]): displayed antimetabolic effect

Cc1ccc(-n2nc(C(=O)Nc3ccc(NS(C)(=O)=O)cc3)c3c2-c2ccccc2S(=O)(=O)N3C)cc1 [2h, 4-Methyl-1-(4-methylphenyl)-N-{4-[(methylsulfonyl)amino]phenyl}-1,4-dihydropyrazolo[4,3-c][1,2]benzothiazine-3-carboxamide 5,5-Dioxide]
assessment of anti-HCV activity in the replicon assay (in words) [2]: selective anti-HCV activity without any antimetabolic effect
effect on cell morphology (microscopic analysis) (Huh-5-2 cells [3]): did not display any significant effects on cell morphology; also recorded: did not display any antimetabolic and cell morphology alteration effects

CN1c2c(C(=O)Nc3ccc(NS(C)(=O)=O)cc3)nn(-c3cccc(Br)c3)c2-c2ccccc2S1(=O)=O [2d, 1-(3-Bromophenyl)-4-methyl-N-{4-[(methylsulfonyl)amino]phenyl}-1,4-dihydropyrazolo[4,3-c][1,2]benzothiazine-3-carboxamide 5,5-Dioxide]
assessment of anti-HCV activity in the replicon assay (in words) [2]: selective anti-HCV activity without any antimetabolic effect

CN1c2c(C(=O)Nc3ccc(NS(C)(=O)=O)cc3)nn(-c3ccc(C(F)(F)F)cc3)c2-c2ccccc2S1(=O)=O [2m, 4-Methyl-N-{4-[(methylsulfonyl)amino]phenyl}-1-[4-(trifluoromethyl)phenyl]-1,4-dihydropyrazolo[4,3-c][1,2]benzothiazine-3-carboxamide 5,5-Dioxide]
inhibition at 50 µM (recombinant NS5BCΔ21 1b): ≥ 50%
antimetabolic effect after dose–response curve analysis (Huh-5-2 cells [1]): displayed antimetabolic effect

COc1cccc(-n2nc(C(=O)Nc3ccc(NS(C)(=O)=O)cc3)c3c2-c2ccccc2S(=O)(=O)N3C)c1 [2j, 1-(3-Methoxyphenyl)-4-methyl-N-{4-[(methylsulfonyl)amino]phenyl}-1,4-dihydropyrazolo[4,3-c][1,2]benzothiazine-3-carboxamide 5,5-Dioxide]
anti-NS5B activity (in words) (recombinant NS5BCΔ21 1b): inactive
inhibition at 50 µM (recombinant NS5BCΔ21 1b): < 50%

Cc1cccc(-n2nc(C(=O)Nc3ccc(NS(C)(=O)=O)cc3)c3c2-c2ccccc2S(=O)(=O)N3C)c1 [2g, 4-Methyl-1-(3-methylphenyl)-N-{4-[(methylsulfonyl)amino]phenyl}-1,4-dihydropyrazolo[4,3-c][1,2]benzothiazine-3-carboxamide 5,5-Dioxide]
assessment of anti-HCV activity in the replicon assay (in words) [2]: selective anti-HCV activity without any antimetabolic effect

Cc1ccccc1-n1nc(C(=O)Nc2ccc(NS(C)(=O)=O)cc2)c2c1-c1ccccc1S(=O)(=O)N2C [2i, 4-Methyl-1-(2-methylphenyl)-N-{4-[(methylsulfonyl)amino]phenyl}-1,4-dihydropyrazolo[4,3-c][1,2]benzothiazine-3-carboxamide 5,5-Dioxide]
antimetabolic effect after dose–response curve analysis (Huh-5-2 cells [1]): displayed antimetabolic effect

CN1c2c(C(=O)Nc3ccc(NS(C)(=O)=O)cc3)nn(-c3ccc(Cl)c(Cl)c3)c2-c2ccccc2S1(=O)=O [2p, 1-(3,4-Dichlorophenyl)-4-methyl-N-{4-[(methylsulfonyl)amino]phenyl}-1,4-dihydropyrazolo[4,3-c][1,2]benzothiazine-3-carboxamide 5,5-Dioxide]
inhibition at 50 µM (recombinant NS5BCΔ21 1b): ≥ 50%
antimetabolic effect after dose–response curve analysis (Huh-5-2 cells [1]): displayed antimetabolic effect
